How the values were obtained:
[1] = Binding to Park's nucleotide, Kd by 1H NMR titration; design: species or system Bacillus subtilis; conditions: for Kd: 20% DMSO, NMR titration
Experimental: Fibril formation is observed in vitro and serves as a convenient predictor of PG complexation in vitro. […] Therefore, DMSO allows for the determination of binding affinity (Kd) values and characterization of the binding interface by Nuclear Magnetic Resonance spectroscopy (NMR).
(§1) Mass spectra were recorded on commercially available spectrometers and HPLC was performed on a commercially available columns. Both the NMR spectroscopy and transmission electron micrographs were performed in a manner known to one of ordinary skill in the art. Fmoc-amino acids and deuterated solvents were purchased from a commercial supplier. Measurement of dissociation constants was performed by NMR.
(§2) UDP-MurNAc-L-Ala-γ-D-Glu-L-Dap-D-Ala-D-Ala pentapeptide (Park's nucleotide) and UDP-MurNAc-L-Ala-γ-D-Glu-L-Dap tripeptide were isolated from Bacillus subtilis by methods known to those of ordinary skill in the art.
(§3) The resultant antibacterial compound was then titrated against a solution of the cytoplasmic PG biosynthetic precursor of lipid II, Park's nucleotide. Isothermal titration calorimetry experiments were used to measure the interaction between the antibacterial compound and Park's nucleotide. The experiments were performed at 25° C. using a titration microcalorimeter equipped with a 250 μL injection syringe and a 400 rpm stirring rate. Both the, antibacterial compound and Park's nucleotide were dissolved in water and vacuum degassed before use. Park's nucleotide (20×10 μL injection of a 5.4 mM solution) was injected into an ITC cell containing ca. 1.3 mL of the antibacterial compound (1 mM). Control experiments were performed under identical conditions by injection of the compound into water alone, Park's nucleotide into water, and the reverse experiment of titrating water into solution of the antibacterial compound or Park's nucleotide. […] The complex pattern of heat released during the titration is indicative of ligand-induced aggregation. Insoluble fibrils were produced from soluble fibril preparations by increasing the ionic strength to greater than or equal to 100 mM.

[2] = Binding to UDP-MurNAc tripeptide lipid II precursor, NMR titration; design: species or system Bacillus subtilis; conditions: for Complexation/binding with UDP-MurNAc-L-Ala-γ-D-Glu-L-Dap tripeptide: NMR analysis / titration
Experimental: as §1, §2, §3
The resultant antibacterial compound still maintains the side-chain amine cationic charge. […] These values indicate that there was a strong affinity of the antibacterial compound to the two lipid II precursors.

Gram positive bacteria = assay: Antibiotic activity; type: cell-based
[3] = Isothermal titration calorimetry with Park's nucleotide; type: binding, Bacillus subtilis; conditions: 25° C., water, Park's nucleotide 5.4 mM injected into 1 mM compound
Experimental: as §3

Substance	Kd [1]	Decrease in binding affinity with Park's nucleotide ([1]; titration experiments)	Complexation/binding with UDP-MurNAc-L-Ala-γ-D-Glu-L-Dap tripeptide [2]	Antibiotic activity (Gram positive bacteria)	Kd ([2]; titration as in example 1, read-out: Kd value with UDP-MurNAc-L-Ala-γ-D-Glu-L-Dap tripeptide)	Complexation with Park's nucleotide by NMR ([1]; NMR analysis)	Ligand-induced aggregation during ITC titration [3]
cyclic (lactone) compound containing octapeptide -Hpg-Orn-Thr-Hpg-Hpg-Thr-Phe-Orn-, diacetylated at the ornithine residues; lacks the side-chain cationic charge [Comparative Example A, reference compound]	1340 ± 320 µM	~10 fold	failed to show detectable binding	markedly reduced			
cyclic (lactone) compound containing octapeptide -Hpg-Orn-Thr-Hpg-Hpg-Thr-Phe-Orn-, ornithine residues modified into secondary amines with isovaleraldehyde [Example 2]	130 ± 20 µM				1280 ± 140 µM		
cyclic (lactone) antibacterial compound containing octapeptide -Hpg-Orn-Thr-Hpg-Hpg-Thr-Phe-Orn-, diguanidylated at the ornithine residues [Example 1]	170 µM		clear evidence of complexation and formation of a large, soluble aggregate			clear evidence of complexation and formation of a large, soluble aggregate	ligand-induced aggregation occurred

Source: patent US7144858B2, “Antibacterial compounds and methods for treating Gram positive bacterial infections” (The Trustees of the University of Pennsylvania, priority 2002, dated 2006)
